# Source: patent US7786141B2 (Vertex Pharmaceuticals Incorporated, priority 2004, dated 2010)
# Assays:
# M4 muscarinic receptor = biological target: T1, M4 muscarinic receptor (Homo sapiens, UniProt P08173); test: Functional mobilization of intracellular calcium (FLIPR) in M4-CHO cells; format: cell-based; details: M4 receptor, calcium mobilization; for Emax: read-out: M4 Efficacy
# T1 construct: expressed in transfected cells; host or cells: CHO (M4-CHO)
# T1 sequence (P08173 1-479): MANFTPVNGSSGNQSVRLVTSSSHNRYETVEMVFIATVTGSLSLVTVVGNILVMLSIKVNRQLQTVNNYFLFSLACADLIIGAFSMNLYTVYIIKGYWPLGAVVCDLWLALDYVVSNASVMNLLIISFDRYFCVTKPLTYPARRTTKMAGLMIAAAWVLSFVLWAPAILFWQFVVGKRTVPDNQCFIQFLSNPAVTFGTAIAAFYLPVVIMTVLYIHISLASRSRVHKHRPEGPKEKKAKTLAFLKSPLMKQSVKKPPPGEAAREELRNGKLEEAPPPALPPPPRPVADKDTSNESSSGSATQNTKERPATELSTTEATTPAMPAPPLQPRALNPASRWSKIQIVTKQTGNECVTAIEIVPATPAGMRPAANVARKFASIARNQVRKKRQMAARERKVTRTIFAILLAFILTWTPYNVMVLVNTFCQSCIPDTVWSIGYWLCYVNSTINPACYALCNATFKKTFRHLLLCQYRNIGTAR
# Summary of the method: (§1)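 Intracellular calcium rise is measured by FLIPR fluorescence over 60 sec in CHO cells carrying human M1 or M4 receptors. Compounds are tested alone as agonists, or pre-incubated 15 min (or co-applied) ahead of carbachol at its EC80 to detect inhibition.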
# M1 muscarinic receptor = biological target: T2, M1 muscarinic receptor (Homo sapiens, UniProt P11229); test: Functional mobilization of intracellular calcium (FLIPR) in M1-CHO cells; format: cell-based; details: M1 receptor, calcium mobilization; for Emax: read-out: M1 Efficacy
# T2 construct: expressed in transfected cells; host or cells: CHO (M1-CHO)
# T2 sequence (P11229 1-460): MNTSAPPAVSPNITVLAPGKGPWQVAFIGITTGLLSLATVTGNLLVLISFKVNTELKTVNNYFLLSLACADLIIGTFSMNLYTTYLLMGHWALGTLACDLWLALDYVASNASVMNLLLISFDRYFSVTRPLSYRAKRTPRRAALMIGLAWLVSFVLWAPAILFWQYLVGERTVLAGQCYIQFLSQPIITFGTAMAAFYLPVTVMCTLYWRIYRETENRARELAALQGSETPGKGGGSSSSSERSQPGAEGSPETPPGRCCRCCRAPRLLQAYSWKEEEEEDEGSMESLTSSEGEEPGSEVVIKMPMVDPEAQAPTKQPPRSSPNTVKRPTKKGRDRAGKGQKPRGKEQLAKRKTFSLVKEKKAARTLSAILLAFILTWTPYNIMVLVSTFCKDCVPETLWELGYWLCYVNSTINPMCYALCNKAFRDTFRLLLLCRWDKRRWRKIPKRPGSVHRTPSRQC
# Summary of the method: as §1
Structure (SMILES),M4 Activity (M4 muscarinic receptor),M4 Efficacy (M4 muscarinic receptor),M1 Activity (M1 muscarinic receptor),M1 Efficacy (M1 muscarinic receptor),Emax (M4 muscarinic receptor),Emax (M1 muscarinic receptor)
CC(=O)N1CC2(CCN(CC3CCN(C(=O)O[C@@H]4CCOC4)CC3)CC2)c2cc(F)ccc21 [compound 82],xx (activity was measured to be between 0.1 μM and 1.0 μM),xx (efficacy was calculated to be between 85% and 65%),xxx (activity was measured to be less than 0.1 μM),xx (efficacy was calculated to be between 85% and 65%),–,–
CCOC(=O)N1CCC(N2CCC3(CC2)CN(C(C)=O)c2ccc(-c4cccc(F)c4)cc23)CC1 [compound 84],xx (activity was measured to be between 0.1 μM and 1.0 μM),–,xxx (activity was measured to be less than 0.1 μM),–,65 to 85%,65 to 85%
Clc1ccc2c(c1)C1(CCN(C3CC4CCC(C4)C3)CC1)CN2 (stereo not drawn) [compound 85],xx (activity was measured to be between 0.1 μM and 1.0 μM),–,xxx (activity was measured to be less than 0.1 μM),–,65 to 85%,65 to 85%
CCON=C1CCC(N2CCC3(CC2)CN(C(C)=O)c2ccc(F)cc23)CC1 (stereo not drawn) [compound 86],x (activity was measured to be greater than 1.0 μM),–,xxx (activity was measured to be less than 0.1 μM),–,< 65%,65 to 85%
O=C(C1CC1)N1CC2(CCN(C3CC4CCC(C3)N4C(=O)O[C@@H]3CCOC3)CC2)c2cc(F)ccc21 (stereo partly drawn) [compound 87],x (activity was measured to be greater than 1.0 μM),–,xxx (activity was measured to be less than 0.1 μM),–,< 65%,65 to 85%
CCOC(=O)N1C2CCC1CC(N1CCC3(CC1)CN(C(=O)c1ccno1)c1ccc(F)cc13)C2 (stereo not drawn) [compound 88],xx (activity was measured to be between 0.1 μM and 1.0 μM),–,xxx (activity was measured to be less than 0.1 μM),–,< 65%,65 to 85%
CCOC(=O)N1C2CCC1CC(N1CCC3(CC1)CN(C(=O)OCCOC)c1ccc(F)cc13)C2 (stereo not drawn) [compound 90],x (activity was measured to be greater than 1.0 μM),–,xx (activity was measured to be between 0.1 μM and 1.0 μM),–,< 65%,65 to 85%
CCCOC(=O)N1CCC(N2CCC3(CC2)CN(C(=O)N(C)C)c2ccc(F)cc23)CC1 [compound 91],xx (activity was measured to be between 0.1 μM and 1.0 μM),–,xxx (activity was measured to be less than 0.1 μM),–,< 65%,65 to 85%
CCOC(=O)N1CCC(N2CCC3(CC2)CN(C(C)=O)c2ccc(C)cc23)CC1 [compound 92],xx (activity was measured to be between 0.1 μM and 1.0 μM),–,xxx (activity was measured to be less than 0.1 μM),–,< 65%,65 to 85%
O=C(O[C@@H]1CCOC1)N1CC2(CCN(C3CC4CCC(C3)N4C(=O)O[C@H]3CCOC3)CC2)c2cc(F)ccc21 (stereo partly drawn) [compound 93],xx (activity was measured to be between 0.1 μM and 1.0 μM),x (efficacy was calculated to be less than 65%),xx (activity was measured to be between 0.1 μM and 1.0 μM),x (efficacy was calculated to be less than 65%),–,–
CC(=O)N1CC2(CCN(C3CC4CCC(C3)N4C(=O)OC(C)C)CC2)c2cc(F)ccc21 (stereo not drawn) [compound 94],xx (activity was measured to be between 0.1 μM and 1.0 μM),–,xxx (activity was measured to be less than 0.1 μM),–,< 65%,< 65%
COCCOC(=O)N1C2CCC1CC(N1CCC3(CCc4ccccc43)CC1)C2 (stereo not drawn) [compound 95],xx (activity was measured to be between 0.1 μM and 1.0 μM),–,xxx (activity was measured to be less than 0.1 μM),–,< 65%,65 to 85%
COC(=O)N1CC2(CCN(C3CC4CCC(C3)N4C(=O)O[C@H]3CCOC3)CC2)c2cc(F)ccc21 (stereo partly drawn) [compound 96],x (activity was measured to be greater than 1.0 μM),–,xx (activity was measured to be between 0.1 μM and 1.0 μM),–,< 65%,65 to 85%
COC(=O)N1CC2(CCN(C3CC4CCC(C3)N4C(=O)OC(C)C)CC2)c2cc(F)ccc21 (stereo not drawn) [compound 97],x (activity was measured to be greater than 1.0 μM),–,xxx (activity was measured to be less than 0.1 μM),–,< 65%,65 to 85%
CCCOC(=O)N1CCC(CN2CCC3(CC2)CN(C(C)=O)c2ccc(F)cc23)CC1 [compound 98],xx (activity was measured to be between 0.1 μM and 1.0 μM),–,xxx (activity was measured to be less than 0.1 μM),–,< 65%,65 to 85%
CCOC(=O)N1C2CCC1CC(N1CCC3(CC1)COc1ccc(Cl)cc13)C2 (stereo not drawn) [compound 99],x (activity was measured to be greater than 1.0 μM),–,xxx (activity was measured to be less than 0.1 μM),–,< 65%,< 65%
COc1ccc(OC(=O)N2C3CCC2CC(N2CCC4(CC2)COc2ccc(F)cc24)C3)cc1 (stereo not drawn) [compound 100],xx (activity was measured to be between 0.1 μM and 1.0 μM),–,xxx (activity was measured to be less than 0.1 μM),–,65 to 85%,65 to 85%
CC#CCOC(=O)N1CCC(N2CCC3(CC2)CN(C(C)=O)c2ccc(F)cc23)CC1 [compound 102],xx (activity was measured to be between 0.1 μM and 1.0 μM),–,xxx (activity was measured to be less than 0.1 μM),–,65 to 85%,65 to 85%
CCOC(=O)N1C2CCC1CC(N1CCC3(CC1)CN(S(C)(=O)=O)c1ccc(F)cc13)C2 (stereo not drawn) [compound 103],xx (activity was measured to be between 0.1 μM and 1.0 μM),–,xxx (activity was measured to be less than 0.1 μM),–,< 65%,65 to 85%
O=C1CC2(CCN(C[C@H]3C[C@H]4C=C[C@H]3C4)CC2)c2ccccc21 [compound 104],x (activity was measured to be greater than 1.0 μM),–,xxx (activity was measured to be less than 0.1 μM),–,< 65%,65 to 85%
CCOC(=O)N1CCC(N2CCC3(CC2)CN(C(C)=O)c2ccc(-c4ccncc4)cc23)CC1 [compound 105],x (activity was measured to be greater than 1.0 μM),–,xx (activity was measured to be between 0.1 μM and 1.0 μM),–,< 65%,< 65%
COCCOC(=O)N1C2CCC1CC(N1CCC3(CC1)CN(C(=O)OC1CCC1)c1ccc(F)cc13)C2 (stereo not drawn) [compound 106],xx (activity was measured to be between 0.1 μM and 1.0 μM),–,xxx (activity was measured to be less than 0.1 μM),–,< 65%,65 to 85%
CCOC(=O)N1CCC(CN2CCC3(CC2)COc2ccc(F)cc23)CC1 [compound 107],x (activity was measured to be greater than 1.0 μM),–,xxx (activity was measured to be less than 0.1 μM),–,< 65%,65 to 85%
CC(C)OC(=O)N1C2CCC1CC(N1CCC3(CC1)CN(C(=O)N(C)C)c1ccc(F)cc13)C2 (stereo not drawn) [compound 108],xx (activity was measured to be between 0.1 μM and 1.0 μM),–,xxx (activity was measured to be less than 0.1 μM),–,< 65%,65 to 85%
